Assay results published in patent US20240246979A1, “cGAS INHIBITORS” (Eli Lilly and Company, priority 2022, published 2024).
pIC50: −log10 of the molar value.

Experiments:
cGAS [1] = biological target: T1, cGAS (Homo sapiens, UniProt Q8N884); assay: In vitro inhibition assay of cGAS activity (cGAMP production, RapidFire mass spectrometry); type: biochemical; parameters: Insert cDNA encoding full-length of human cGAS; His6; made in house; host or cells: E. coli BL21(DE3); conditions: 10 nM recombinant human cGAS, 60 nM 75-bp dsDNA, 50 μM ATP, 50 μM GTP, 3 hrs
T1 sequence (Q8N884 whole entry): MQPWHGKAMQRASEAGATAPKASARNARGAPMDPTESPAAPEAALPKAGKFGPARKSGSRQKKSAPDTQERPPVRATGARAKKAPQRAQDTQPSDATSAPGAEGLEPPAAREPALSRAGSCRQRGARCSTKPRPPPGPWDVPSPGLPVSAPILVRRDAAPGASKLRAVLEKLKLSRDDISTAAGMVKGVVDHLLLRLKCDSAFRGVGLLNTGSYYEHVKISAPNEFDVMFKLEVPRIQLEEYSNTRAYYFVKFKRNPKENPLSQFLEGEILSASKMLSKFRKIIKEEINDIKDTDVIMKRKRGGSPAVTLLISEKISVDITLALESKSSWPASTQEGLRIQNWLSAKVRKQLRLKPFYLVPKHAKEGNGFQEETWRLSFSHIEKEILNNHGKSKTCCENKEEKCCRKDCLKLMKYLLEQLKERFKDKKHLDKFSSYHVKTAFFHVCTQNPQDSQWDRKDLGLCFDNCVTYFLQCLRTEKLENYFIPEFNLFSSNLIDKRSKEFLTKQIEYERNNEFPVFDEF
Summary of the method: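 His6-tagged full-length human cGAS (10 nM, E. coli-expressed) was incubated for 3 hrs at ambient temperature with 60 nM 75-bp dsDNA, 50 μM ATP and 50 μM GTP in Tris pH 7.5/MgCl2 buffer with compound dilutions. cGAMP was quantified by RapidFire mass spectrometry against an internal standard, and IC50 was obtained by 4-parameter logistic fit.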

cGAS [2] = biological target: T1, cGAS; assay: Cellular assay to measure cGAS activity (IFNb AlphaLISA in THP1 cells stimulated by RDG-Adenovirus-GFP); type: cell-based; parameters: host or cells: THP1 cells differentiated with PMA and stimulated with RDG-Adenovirus-GFP; conditions: PMA-differentiated THP1 cells, RDG-Adenovirus-GFP at 1000 MOI; inhibition of IFNb production as marker for cGAS activity
Summary of the method: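 PMA-differentiated THP1 cells were infected with RDG-Adenovirus-GFP at 1000 MOI for 4 h, then exposed overnight to test compounds. IFNb in the supernatant was quantified by AlphaLISA as a cGAS activity marker, and IC50 was fitted with a 4-parameter logistic equation.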

| Structure (SMILES) | pIC50 (cGAS [1]) | pIC50 (cGAS [2]) |
| --- | --- | --- |
| COCCNc1cc(Cl)c(Cl)c2[nH]c3c(c12)[C@@H](C)C(=O)NCC3 (single isomer, unassigned) [Example 47] | 7.70 | 6.22 |
| CC1C(=O)NCCc2[nH]c3c(Cl)c(Cl)cc(OCCF)c3c21 (stereo not shown) [Example 75, 7,8-Dichloro-10-(2-fluoroethoxy)-1-methyl-3,4,5,6-tetrahydroazepino[4,5-b]indol-2(1H)-one] | 7.72 | 5.94 |
| CCC1C(=O)NCCc2[nH]c3c(Cl)c(Cl)cc(NC(=O)CO)c3c21 (stereo not shown) [Example 11, N-(7,8-Dichloro-1-ethyl-2-oxo-1,2,3,4,5,6-hexahydroazepino[4,5-b]indol-10-yl)-2-hydroxyacetamide] | 7.34 | 5.75 |
| O=C1Cc2c([nH]c3c(Cl)c(Cl)cc(OCCCO)c23)CCN1 [Example 23, 7,8-Dichloro-10-(3-hydroxypropoxy)-3,4,5,6-tetrahydroazepino[4,5-b]indol-2(1H)-one] | 6.93 | 5.11 |
| C[C@@H]1C(=O)NCCc2[nH]c3c(Cl)c(Cl)cc(OCC(N)=O)c3c21 (single isomer, unassigned) [Example 17A] | 7.65 | 6.07 |
| O=C1Cc2c([nH]c3c(Cl)c(Cl)cc(-c4cn[nH]c4)c23)CCN1 [Example 19, 7,8-Dichloro-10-(1H-pyrazol-4-yl)-3,4,5,6-tetrahydroazepino[4,5-b]indol-2(1H)-one] | 7.03 | < 5.00 |
| CC(O)CC1CNC(=O)Cc2c1[nH]c1c(Cl)c(Cl)cc(-c3cnn(C)n3)c21 (stereo not shown) [Example 119, 7,8-Dichloro-5-(2-hydroxypropyl)-10-(2-methyl-2H-1,2,3-triazol-4-yl)-3,4,5,6-tetrahydroazepino[4,5-b]indol-2(1H)-one] | 7.63 | 6.31 |
| CC1C(=O)NCCc2[nH]c3c(Cl)c(Cl)cc(N[C@H]4CCOC4)c3c21 (mixture of isomers) [Example 61, 7,8-Dichloro-1-methyl-10-(((S)-tetrahydrofuran-3-yl)amino)-3,4,5,6-tetrahydroazepino[4,5-b]indol-2(1H)-one] | 7.46 | 5.72 |

The next lines start with the values.

| pIC50 (cGAS [1]) | pIC50 (cGAS [2]) | Structure (SMILES) |
| --- | --- | --- |
| ≤ 4.40 | < 5.00 | C[C@H]1C(=O)NCC(C)(C)c2[nH]c3c(Cl)c(Cl)cc(NC(=O)CO)c3c21 (single isomer, unassigned) [Example 132] |
| 5.67 | < 5.00 | C[C@@H]1C(=O)NCCc2[nH]c3c(Cl)c(Cl)cc(OCc4cocn4)c3c21 (single isomer, unassigned) [Example 179, (S)-7,8-Dichloro-1-methyl-10-(oxazol-4-ylmethoxy)-3,4,5,6-tetrahydroazepino[4,5-b]indol-2(1H)-one or (R)-7,8-dichloro-1-methyl-10-(oxazol-4-ylmethoxy)-3,4,5,6-tetrahydroazepino[4,5-b]indol-2(1H)-one] |
| 7.71 | 6.47 | C[C@H]1CNC(=O)[C@H](C)c2c1[nH]c1c(Cl)c(Cl)cc(NC(=O)CO)c21 (racemic) [Example 158, trans-N-(7,8-dichloro-1,5-dimethyl-2-oxo-1,2,3,4,5,6-hexahydroazepino[4,5-b]indol-10-yl)-2-hydroxyacetamide] |
| 7.92 | 6.15 | CC(O)CC1CNC(=O)Cc2c1[nH]c1c(Cl)c(Cl)cc(CC#N)c21 (stereo not shown) [Example 120, 2-(7,8-Dichloro-5-(2-hydroxypropyl)-2-oxo-1,2,3,4,5,6-hexahydroazepino[4,5-b]indol-10-yl)acetonitrile] |
| 7.87 | 6.66 | CC(O)CC1CNC(=O)Cc2c1n(C)c1c(Cl)c(Cl)cc(CC#N)c21 (mixture of isomers) [Example 128, 2-(7,8-Dichloro-5-(2-hydroxypropyl)-6-methyl-2-oxo-1,2,3,4,5,6-hexahydroazepino[4,5-b]indol-10-yl)acetonitrile] |
| 5.18 | < 5.00 | C[C@@H]1CNC(=O)[C@@H](C)c2c1[nH]c1c(Cl)c(Cl)cc(NCCO)c21 (single isomer, unassigned) [Example 157] |
